In patent US6207648A, “Methods of using cytochrome P450 reductase for the enhancement of P450-based anti-cancer gene therapy” (priority 1998, dated 2001):

Legend:
[1] = system: 9L gliosarcoma cells (parental, CYP2B1+, CYP2B1+ RED+++); experiment: In vitro growth inhibition assay, XTT (Example 1); details: lines PR11, PR7 vs P3, P17; growth inhibition assay
Experimental: Cells (1000/well) seeded in 96-well plates were treated with the indicated concentrations of CPA for 4 days. Corresponding controls received no drug treatment. Cell survival was determined by an XTT calorimetric assay. Data (mean for triplicate samples) were expressed as growth ratio (%), i. e., cell number (XTT activity) in drug treated plates as a percentage of the corresponding drug-free controls.
Cells (500/well) seeded in 96-well plates were treated with 1 mM cyclophosphamide in the absence or presence of the RED inhibitors AADP (0.5 mM) or DPI (5 μM). Corresponding controls received no drug treatment. Cell survival was determined by an XTT colorimetric assay. Data (mean for triplicate samples) are expressed as growth ratio (%), i.e., cell number (XTT activity) in drug treated plates as a percentage of the corresponding drug-free controls and are representative of 2-3 independent experiments. AADP and DPI were added to the cells 30 minutes prior to CPA treatment.
(B) Growth inhibition assay--Cells (1000/well) seeded in 96 well plates were treated with the indicated concentrations of CPA for 4-5 days. Corresponding controls received no drug treatment. Cell survival was determined by an XTT colorimetric assay, a cell proliferation assay that measures mitochondrial dehydrogenase activity of viable cells (Scudiero, D. A., et al., Cancer Res. 48:4827-4833 (1988)).

9L-lacZ cells = experiment: Bystander cytotoxicity in co-culture with lacZ-marked 9L cells; assay type: cell-based, rat; details: 1 mM CPA, 5 days
Experimental: CYP2B1^+ cells (FIG. 6A) and CYP2B1^+ RED^++ cells (FIG. 6C) were mixed with equal numbers of lacZ-marked 9L cells and cultured in the absence (FIGS. 6A and 6C) or in the presence (FIGS. 6B and 6D) of 1 mM CPA. Shown are 0.5% glutaraldehyde-fixed cells, 5 days after beginning drug treatment, stained with X-Gal for 4 hours to visualize the 9L-lacZ cells (dark staining).

parental 9L cells = experiment: Limited dilution assay of conditioned media, bystander killing of parental 9L cells; assay type: cell-based, rat; details: PR11, PR7 vs P3, P17; 2 mM CPA 48 h
Experimental: FIG. 5 is a graph depicting the effects of culture media from P450 and RED-transduced tumor cells incubated with CPA, on the survival of wild-type tumor cells. […] Parental 9L cells seeded in 30 mm plates (10^4 cells/well) in duplicate were cultured with 5-50% of condition media collected from each of the indicated cell lines (1.5×10^6) incubated with 2 mM CPA for 48 hours as described below in the "Materials Methods" section of Example 1. Five days after treatment, the number of viable parental 9L cells was determined using a hemacytometer based on trypan blue exclusion (mean for duplicate values).
Limited dilution assay to evaluate bystander killing effect: 9L cells were seeded in 6-well plates at 1.5×10^6 cells/well for 12 hours, and treated with 2 mM CPA for 48 hours. The conditioned media from each well was collected, diluted 5-50% into fresh media as indicated for each experiment, and added into wells of a second set of 6-well plates pre-seeded with parental 9L cells (10^4 cells/well). Cultures were maintained for 5-7 days and colonies were scored as described for the clonogenic assay.

[2] = system: 9L gliosarcoma cells (parental, CYP2B1+, CYP2B1+ RED+++); experiment: In vitro colony formation cytotoxicity assay (Example 1); assay type: cell-based, rat
Description: FIGS. 2A and 2C depict the results of a colony formation cytotoxicity assay.
FIG. 3A depicts results from a colony formation cytotoxicity assay. […] The survival fraction is expressed as the number of colonies in each treatment group compared to the untreated control.
Corresponding controls received no drug treatment.

[3] = system: 9L and 9L-R cells infected with Ad.CMV-2B1; experiment: Adenovirus-mediated CYP2B1 gene transduction, CPA cytotoxicity (XTT); assay type: cell-based, rat
Experimental: FIGS. 8A and 8B are graphs depicting much greater cytotoxicity of adenovirus-mediated P450 gene transfer combined with CPA treatment in the case of 9L tumor cells engineered to express RED (FIG. 8B), compared to wild-type 9L cells that express basal RED activity (FIG. 8A). Cells were infected with Ad.CMV-2B1 at multiplicities of infection (MOI) ranging from 50-800, as indicated by the values in parenthesis on the right of each panel. Uninfected cells (UI) were used as controls. At 24 hours post infection, cells were replated at 500 cells per well in duplicate on 96-well plates. CPA was then added at concentrations up to 2 mM. After 5 days of incubation, cell survival was determined by an XTT colorimetric assay.
Adenovirus-mediated CYP2B1 gene transduction: A recombinant adenovirus, Ad.CMV-2B1, carrying the CYP2B1 gene was constructed as described in Chen, L., et al., Cancer Res. 56:1331-1340 (1996). Large scale production of recombinant adenovirus was performed by growth in 293 cells followed by purification by double cesium gradient ultracentrifugation (Graham, F. L. and Prevec, L., "Manipulation of Adenovirus Vectors" in Methods in Molecular Biology:Gene Transfer and Expression Protocols, volume 7, E. J. Murray (ed.), The Human Press, Inc., Clifton, N.J., pages 109-127 (1991)). The titer of purified adenovirus was determined in a spectrophotometer at 260 nm and by plaque assays. Ad.CMV-2B1 was added to the cells plated on 30 mm diameter tissue culture plates at multiplicities of infection (MOI) as indicated in the figure legends. Twenty four hours after viral infection, the infected cells were trypsinized and replated at 500 cells/well onto 96 well tissue culture plates and treated with CPA. Four to seven days after CPA treatment, the number of surviving cells was determined using the XTT assay described above.

[4] = in vivo; cited from earlier work
CYP2B1 = experiment: Fluorometric assay of 4-hydroxy-CPA in culture medium of 9L tumor cells (Example 1); assay type: in vitro ADME, rat; details: 2 mM CPA, 24 h
Experimental: FIG. 7 is a bar graph showing that higher 4-hydroxy-CPA levels are produced by P450 and RED-containing tumor cells compared to tumor cells containing P450 alone. The parental CYP2B1^+ cell lines P3 and P17, and their corresponding RED overexpressing derivatives PR11 and PR7 were plated confluent (1.5×10^6 cells per 30 mm culture dish) so that the cell number remained relatively constant during the course of the experiment. Cells were incubated for 24 hours with 2 mM CPA in the presence of 5 mM semicarbazide. Medium was collected and then assayed for 4-hydroxy-CPA using a fluorometric assay, as described below in the "Materials and Methods" section of Example 1. Limit of detection in this assay was approximately 1 μM 4-hydroxy-CPA. The higher CPA 4-hydroxylase activity of line P 17 compared to line P3 is consistent both with the higher cytotoxic potential of CPA-conditioned media from P17 cells (FIG. 5), and with the greater cytotoxicity of CPA toward the P 17 cells in vitro (FIGS. 2, 3) and in vivo (FIG. 9, below).

## O=P1(N(CCCl)CCCl)NCCCO1 (centres unmarked) [CPA, cyclophosphamide]
[1]
  cytotoxic response of CYP2B1+ cells on RED overexpression: significantly enhanced the cytotoxic response
9L-lacZ cells
  bystander cytotoxicity of CYP2B1+ 9L cells toward CYP2B1- 9L cells: substantial, albeit incomplete, bystander cytotoxicity
  bystander killing of 9L/lacZ cells by co-culture with CYP2B1+ RED+++ cells: near complete killing
9L-lacZ cells; unstained cells
  elimination of CYP2B1+ and CYP2B1+ RED+++ cells: essentially eliminated
Parental 9L cells
  cytotoxicity of conditioned media of CYP2B1+ RED+++ vs CYP2B1+ cells incubated with CPA: substantially more cytotoxic
[2]; line 9L-R (RED without CYP2B1)
  sensitization of 9L cells to CPA by RED overexpression alone: did not sensitize 9L tumor cells
[2]; lines PR11, PR7 vs P3, P17, colony formation assay
  cytotoxic response of CYP2B1+ cells on RED overexpression: significantly enhanced the cytotoxic response
[3]; MOI 50 to 800, most striking in RED overexpressing cells
  CPA sensitivity of cells infected with Ad.CMV-2B1: acquired CPA sensitivity
[3]; RED-overexpressing 9L cells
  enhancement of drug cytotoxicity in Ad.CMV-2B1-infected cells at higher viral multiplicities: further enhanced
[3]; control experiment
  CPA sensitivity of 9L cells infected with lacZ adenovirus: did not sensitize the cells
[3]; parental 9L cells, MOI above 200
  enhancement of drug cytotoxicity in Ad.CMV-2B1-infected cells at higher viral multiplicities: not further enhanced
[4]
  side effects of systemic distribution of drug and alkylating metabolites: cardiotoxicity, renal toxicity, marrow suppression, and neurotoxoxicity
CYP2B1
  4-hydroxylated metabolites in 9L parental cells: corresponds to the limit of detection
CYP2B1; 5 mM semicarbazide
  levels of 4-hydroxy-CPA formed by CYP2B1+ RED+++ vs parental CYP2B1+ cell lines: up to 3 fold
